As a reminder, the IC50 is the midpoint of a concentration-inhibition curve.

The assay deals with DYRK1A (Homo sapiens (Human), UniProt Q13627). In words: DYRK1A Inhibition Assay. It is filed as biochemical. As to conditions: Selected Compounds of Formula (I); DYRK1A 1 nM, ATP 20 μM, Ser/Thr 18 peptide 2 μM, 90 minutes; read-out: DYRK1 IC50. The protocol:
DYRK1A—Invitrogen #PV4105
Ser/Thr 18 peptide—Invitrogen #PR8227U Phos-Ser/Thr 18 peptide—Invitrogen #PR8229U Assay plate—PerkinElmer #6007279
Development reagent A—Invitrogen #PR5194B Development buffer—Invitrogen #PR4876B
1. Test compounds were diluted to 1 mM in DMSO 2. Stock was further diluted 3-fold using Echo platform 3. 100 nL of DMSO into Columns 1 and 24 and 100 nL of compounds dilutions to Columns 2-23 in a plate.
1. Add 5 μL enzyme & substrate mixture to each well in Column 2-23 and A24-H24 wells of the 384-well assay plate; 2. Add 5 μL 0% Phosphorylation control to A1-H1 and I24-P24 wells of the assay plate; 3. Add 5 μL 100% Phosphorylation control to I1-P1 wells of the assay plate; 4. Spin the assay plate (1000 rpm, 1 minute @23° C.); 5. Incubate enzyme with compounds for 15 minutes at 23° C.; 6. Add 5 μL ATP solution to each well of the assay plate; 7. Spin the plate (1000 rpm, 1 minute @23° C.); 8. Incubate the assay plate for 90 minutes at 23° C.; 9. Add 10 μL Development reagent A to each well of the assay plate; 10. Centrifuge the plate at 1000 rpm about 15 seconds and seal a film over assay plate. Incubate the assay plate for 30 minutes at 23° C. 11. Read assay plates on Envision (see Tables A, B, and C).
Final Compound Concentrations
Assay buffer: 50 mM Hepes pH7.5, 10 mM MgCl2, 1 mM EDTA, 0.01% Brij-35
Ser/Thr 18 peptide: 2 μM Reaction time: 90 minutes
With `O=C(O)[C@H]1C[C@H](Nc2ncc(-c3ccc4cnccc4c3)s2)C1` [Compound 72], the IC50 was no more than 10 nM.
As for `CN1CC(OC(=O)Nc2cc3cc(-c4cnn(C)c4)ccc3cn2)C1` [Compound 84], the figure is no more than 10 nM; as for `O=C(O)C1CCN(Cc2cncc3ccc(-c4cnc(C#CC5CCOCC5)s4)cc23)CC1` [Compound 91], 100 to 1000 nM; as for `CC(C)(O)C#Cc1ncc(-c2ccc3cncc(CN4CCC(C(=O)O)CC4)c3c2)s1` [Compound 109], greater than 1000 nM.

For the origin of these results see patent US20250066318A1, “HETEROCYCLIC COMPOUNDS AS DYRK1A INHIBITORS” (Prothena Biosciences Limited, priority 2021, published 2025).
